{"source": "patent US8222300B2", "about": "“Methods of treating parkinson's disease using halogenated volatile compounds” (Mouse Specifics, Inc., priority 2007, dated 2012)", "test_system": "adult female CD-1 mice", "format": "in vivo", "description": "Isoflurane is a halogenated inhalation anesthetic and is routinely used in laboratory animals for its anesthetic properties. In this experiment, posture and gait in mice after brief isoflurane anesthesia was investigated.\nVentral plane videography was used to image 4 adult female CD-1 mice walking 25 cm/s on a transparent treadmill belt just prior to 5 minutes of isoflurane (2.5% isoflurane final concentration in 100% oxygen) anesthesia. Gait analysis was again performed at 25 cm/s 1, 15, 30 and 60 minutes after the animals regained their righting reflex. Mice were placed in a chamber and delivered the isoflurane via a system which vaporized the isoflurane and mixed it with the oxygen using an anesthesia system (EZ Anesthesia™, Euthanex).\nWhen the mice first emerged from the anesthesia (animals were moved from an anesthesia box to room air, including oxygen and CO2), they were groggy for about 2-40 seconds. Following the brief groggy period, a supranormal function became apparent as their gait (including stride length, stance width, and swing duration) was improved relative to prior to the administration of the isoflurane.", "key": {"[1]": {"details": "following cessation of anesthesia"}}}
{"smiles": "FC(F)OC(Cl)C(F)(F)F", "note": "(stereo not shown) [isoflurane, 2-chloro-2-(difluoromethoxy)-1,1,1-trifluoro-ethane]", "values": [{"measurement": "Increase of swing duration compared to baseline", "setting": "1 minute after recovery", "result": "~50", "unit": "%"}, {"measurement": "Stride length", "setting": "1 minute after recovery from 5 minutes of 2.5% isoflurane in 100% oxygen, treadmill 25 cm/s, baseline 6.3±0.1 cm, P<0.05", "result": "7.6±0.2", "unit": "cm"}, {"measurement": "Stance width variability", "setting": "1 minute after recovery from isoflurane, versus baseline", "result": "lower"}, {"measurement": "Swing duration", "setting": "1 minute after recovery, baseline 77±3 ms, P<0.05", "result": "103 ± 3", "unit": "ms"}, {"measurement": "Propulsion duration of the hind limbs", "setting": "1 minute after recovery, baseline 128±5 ms, P<0.05", "result": "167 ± 6", "unit": "ms"}, {"measurement": "Stepping frequency", "setting": "1 minute after recovery, treadmill 25 cm/s, baseline 4.1±0.1 Hz, P<0.05", "result": "3.3±0.1", "unit": "Hz"}, {"measurement": "Persistence of some supranormal gait characteristics", "setting": "[1]", "result": "~30", "unit": "min"}, {"measurement": "Time for all gait metrics to return to baseline", "setting": "[1]", "result": "≤ 60", "unit": "min"}, {"measurement": "Duration of groggy period on emergence from anesthesia", "setting": "mouse, in vivo", "result": "2 to 40", "unit": "s"}, {"measurement": "Increase in stride length", "setting": "some mice emerging from isoflurane anesthesia", "result": "about 25%"}]}
